The values below come from patent US8178658B2 (Dow AgroSciences, LLC, priority 2008, dated 2012).

Molecules are shown by their SMILES.

Experiment [1] concerns beet armyworm (BAW; Spodoptera exigua: Lepidoptera). The experiment can be described thus: 96-well microtiter plate-based high throughput (HTS) diet bioassay on beet armyworm (BAW HTS). It is filed as in vivo. Conditions: BAW eggs, 12 μg test compound per well, mortality at 6 d post-treatment, mortality class. Put shortly:
(§1)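 Compound was layered onto artificial diet and dried, then infested: eggs for the 96-well test (12 μg per well, 29° C, dark) and 3–5 second instars for the 128-well tray (50 μg/cm^2, 25° C, 14:10 light-dark). Both ran six days before percent mortality was recorded and averaged across replicates or wells.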

Experiment [2] shares this test system. As to the kind of experiment: 128-well diet tray assay on beet armyworm (BAW 50). It is filed as in vivo. To be noted: 128-well diet tray assay, 50 μg/cm^2 of test compound on diet, second instar BAW larvae, mortality class. Summed up:
as §1

Setting [3] is: 96-well microtiter plate HTS diet assay.

`COCC1OC(ON=Cc2ccc(-c3ncn(-c4ccc(OC(F)(F)C(F)(F)F)cc4)n3)cc2)C(OC)C(OC)C1OC` (stereo not shown) [Compound 119]: the “BAW HTS” value was “A (the compound was tested and at least 50 percent mortality was observed)” in experiment [1] (96-well HTS diet bioassay); “A (the compound was tested and at least 50 percent mortality was observed)” in experiment [1] (setting [3]). The “BAW 50 ug/cm2” value in experiment [2] was “A (the compound was tested and at least 50 percent mortality was observed)”.
Turning to `CCOC1C(OC)C(C)OC(ON=Cc2ccc(-c3ncn(-c4ccc(OC(F)(F)F)cc4)n3)cc2)C1OC` (stereo not shown) [Compound 120], the “BAW HTS” value in experiment [1] (96-well HTS diet bioassay) is “A (the compound was tested and at least 50 percent mortality was observed)”; in experiment [1] (setting [3]) it was “A (the compound was tested and at least 50 percent mortality was observed)”. Also, in experiment [2], the “BAW 50 ug/cm2” value is “A (the compound was tested and at least 50 percent mortality was observed)”.
Turning to `CCOC1C(OC)C(C)OC(ON=Cc2ccc(-c3ncn(-c4ccc(C(F)(F)F)nc4)n3)cc2)C1OC` (stereo not shown) [Compound 121], the “BAW HTS” value in experiment [1] (96-well HTS diet bioassay) was “B (either (1) the compound was tested and less than 50 percent mortality was observed or (2) the compound was not tested)”; in experiment [1] (setting [3]), “B (either (1) the compound was tested and less than 50 percent mortality was observed or (2) the compound was not tested)”. Besides, the “BAW 50 ug/cm2” value in experiment [2] is “A (the compound was tested and at least 50 percent mortality was observed)”.
As to `CCOC1C(OC)C(C)OC(ON=Cc2ccc(-c3ncn(-c4ccc(OC(F)(F)F)cc4)n3)cn2)C1OC` (stereo not shown) [Compound 123], the “BAW HTS” value in experiment [1] (96-well HTS diet bioassay) was “B (either (1) the compound was tested and less than 50 percent mortality was observed or (2) the compound was not tested)”; in experiment [1] (setting [3]) it was “B (either (1) the compound was tested and less than 50 percent mortality was observed or (2) the compound was not tested)”. The “BAW 50 ug/cm2” value in experiment [2] was “A (the compound was tested and at least 50 percent mortality was observed)”.
Regarding `CCOC1C(OC)C(C)OC(ON=Cc2ccc(-c3ncn(-c4ccc(OC(F)(F)C(F)(F)Br)cc4)n3)cc2)C1OC` (stereo not shown) [Compound 124], the “BAW HTS” value in experiment [1] (96-well HTS diet bioassay) was “B (either (1) the compound was tested and less than 50 percent mortality was observed or (2) the compound was not tested)”; in experiment [1] (setting [3]) it was “B (either (1) the compound was tested and less than 50 percent mortality was observed or (2) the compound was not tested)”. The “BAW 50 ug/cm2” value in experiment [2] was “A (the compound was tested and at least 50 percent mortality was observed)”.
For `CCOc1ccc(-n2cnc(-c3ccc(C=NOC4OC(C)C(OC)C(OCC)C4OC)cc3)n2)cc1` (stereo not shown) [Compound 125], the “BAW HTS” value in experiment [1] (96-well HTS diet bioassay) is “B (either (1) the compound was tested and less than 50 percent mortality was observed or (2) the compound was not tested)”; in experiment [1] (setting [3]), “B (either (1) the compound was tested and less than 50 percent mortality was observed or (2) the compound was not tested)”. For the same compound, the “BAW 50 ug/cm2” value in experiment [2] was “A (the compound was tested and at least 50 percent mortality was observed)”.
On to `CCOC1C(OC)C(C)OC(ON=Cc2ccc(-c3ncn(-c4ccc(C#N)cc4)n3)cc2)C1OC` (stereo not shown) [Compound 126], for which the “BAW HTS” value in experiment [1] (96-well HTS diet bioassay) was “B (either (1) the compound was tested and less than 50 percent mortality was observed or (2) the compound was not tested)”; in experiment [1] (setting [3]), “B (either (1) the compound was tested and less than 50 percent mortality was observed or (2) the compound was not tested)”. Besides, the “BAW 50 ug/cm2” value in experiment [2] was “A (the compound was tested and at least 50 percent mortality was observed)”.
Turning to `CCOC1C(OC)C(C)OC(ON=Cc2ccc(-c3ncn(-c4ccc([N+](=O)[O-])cc4)n3)cc2)C1OC` (stereo not shown) [Compound 127], the “BAW HTS” value was “B (either (1) the compound was tested and less than 50 percent mortality was observed or (2) the compound was not tested)” in experiment [1] (96-well HTS diet bioassay); “B (either (1) the compound was tested and less than 50 percent mortality was observed or (2) the compound was not tested)” in experiment [1] (setting [3]). In experiment [2], the “BAW 50 ug/cm2” value is “A (the compound was tested and at least 50 percent mortality was observed)”.
As to `CCOC1C(OC)C(C)OC(ON=Cc2ccc(-c3nc(-c4ccc(OC(F)(F)F)cc4)ns3)cc2)C1OC` (stereo not shown) [Compound 128], the “BAW HTS” value was “B (either (1) the compound was tested and less than 50 percent mortality was observed or (2) the compound was not tested)” in experiment [1] (96-well HTS diet bioassay); “B (either (1) the compound was tested and less than 50 percent mortality was observed or (2) the compound was not tested)” in experiment [1] (setting [3]). In addition, the “BAW 50 ug/cm2” value in experiment [2] is “A (the compound was tested and at least 50 percent mortality was observed)”.
For the compound `CCOC1C(OC)C(C)OC(ON=Cc2ccc(-c3nsc(-c4ccc(OC(F)(F)F)cc4)n3)cc2)C1OC` (stereo not shown) [Compound 129], the “BAW HTS” value was “B (either (1) the compound was tested and less than 50 percent mortality was observed or (2) the compound was not tested)” in experiment [1] (96-well HTS diet bioassay); “B (either (1) the compound was tested and less than 50 percent mortality was observed or (2) the compound was not tested)” in experiment [1] (setting [3]). For the same compound, the “BAW 50 ug/cm2” value in experiment [2] is “A (the compound was tested and at least 50 percent mortality was observed)”.
`COC1C(C)OC(ON=Cc2ccc(-n3nnc(-c4ccc(C(F)(F)F)cc4)n3)cc2)C(OC)C1OC` (stereo not shown) [Compound 131]: the “BAW HTS” value in experiment [1] (96-well HTS diet assay) is “B (either (1) the compound was tested and less than 50 percent mortality was observed or (2) the compound was not tested)”; in experiment [1] (setting [3]), “B (either (1) the compound was tested and less than 50 percent mortality was observed or (2) the compound was not tested)”. Moreover, the “BAW 50 ug/cm2” value in experiment [2] is “B (either (1) the compound was tested and less than 50 percent mortality was observed or (2) the compound was not tested)”.
On to `CO[C@@H]1[C@@H](OC)[C@H](C)O[C@@H](O/N=C/c2ccc(-c3ccnc(-c4ccc(OC(F)(F)F)cc4)c3)cc2)[C@@H]1OC` [Compound 132], for which the “BAW HTS” value in experiment [1] (setting [3]) is “B (either (1) the compound was tested and less than 50 percent mortality was observed or (2) the compound was not tested)”. Moreover, in experiment [1] (Spodoptera exigua, 144 h, 96-well HTS diet assay, read-out: BAW HTS), the pest or weed control at 12 µg/well, 12 µg/well was below 50%. Also, the “BAW 50 ug/cm2” value in experiment [2] was “A (the compound was tested and at least 50 percent mortality was observed)”. In experiment [2] (Spodoptera exigua, 144 h, read-out: BAW 50 ug/cm2), the pest or weed control at 50 µg/cm2, 50 µg/cm2 was above 50%.
In the case of `COC1C(C)OC(ON=Cc2ccc(-c3cc(-c4ccc(OC(F)(F)F)cc4)ccn3)cc2)C(OC)C1OC` (stereo not shown) [Compound 133], the “BAW HTS” value is “B (either (1) the compound was tested and less than 50 percent mortality was observed or (2) the compound was not tested)” in experiment [1] (96-well HTS diet assay); “B (either (1) the compound was tested and less than 50 percent mortality was observed or (2) the compound was not tested)” in experiment [1] (setting [3]). In addition, in experiment [2], the “BAW 50 ug/cm2” value is “A (the compound was tested and at least 50 percent mortality was observed)”.
For `COC1C(C)OC(ON=Cc2ccc(-c3cccc(-c4ccc(OC(F)(F)F)cc4)n3)cc2)C(OC)C1OC` (stereo not shown) [Compound 134], the “BAW HTS” value in experiment [1] (96-well HTS diet assay) was “B (either (1) the compound was tested and less than 50 percent mortality was observed or (2) the compound was not tested)”; in experiment [1] (setting [3]), “B (either (1) the compound was tested and less than 50 percent mortality was observed or (2) the compound was not tested)”. Further, the “BAW 50 ug/cm2” value in experiment [2] was “A (the compound was tested and at least 50 percent mortality was observed)”.
As to `COC1C(C)OC(ON=Cc2ccc(-c3cncc(-c4ccc(OC(F)(F)F)cc4)c3)cc2)C(OC)C1OC` (stereo not shown) [Compound 135], the “BAW HTS” value in experiment [1] (96-well HTS diet assay) was “B (either (1) the compound was tested and less than 50 percent mortality was observed or (2) the compound was not tested)”; in experiment [1] (setting [3]), “B (either (1) the compound was tested and less than 50 percent mortality was observed or (2) the compound was not tested)”. The “BAW 50 ug/cm2” value in experiment [2] was “A (the compound was tested and at least 50 percent mortality was observed)”.
In the case of `COC1C(C)OC(ON=Cc2ccc(-c3ncc(-c4ccc(OC(F)(F)F)cc4)cn3)cc2)C(OC)C1OC` (stereo not shown) [Compound 136], the “BAW HTS” value in experiment [1] (96-well HTS diet assay) was “B (either (1) the compound was tested and less than 50 percent mortality was observed or (2) the compound was not tested)”; in experiment [1] (setting [3]), “B (either (1) the compound was tested and less than 50 percent mortality was observed or (2) the compound was not tested)”. In experiment [2], the “BAW 50 ug/cm2” value was “A (the compound was tested and at least 50 percent mortality was observed)”.
In the case of `COC1C(C)OC(ON=Cc2ccc(-c3cnc(-c4ccc(OC(F)(F)F)cc4)nc3)cc2)C(OC)C1OC` (stereo not shown) [Compound 137], the “BAW HTS” value in experiment [1] (96-well HTS diet assay) is “B (either (1) the compound was tested and less than 50 percent mortality was observed or (2) the compound was not tested)”; in experiment [1] (setting [3]) it was “B (either (1) the compound was tested and less than 50 percent mortality was observed or (2) the compound was not tested)”. For the same compound, the “BAW 50 ug/cm2” value in experiment [2] was “A (the compound was tested and at least 50 percent mortality was observed)”.
In the case of `COC1C(C)OC(ON=Cc2ccc(-c3nccc(-c4ccc(OC(F)(F)F)cc4)n3)cc2)C(OC)C1OC` (stereo not shown) [Compound 138], the “BAW HTS” value in experiment [1] (96-well HTS diet assay) is “A (the compound was tested and at least 50 percent mortality was observed)”; in experiment [1] (setting [3]), “A (the compound was tested and at least 50 percent mortality was observed)”. Moreover, the “BAW 50 ug/cm2” value in experiment [2] was “A (the compound was tested and at least 50 percent mortality was observed)”.
For the compound `COC1C(C)OC(ON=Cc2ccc(-c3ccnc(-c4ccc(OC(F)(F)F)cc4)n3)cc2)C(OC)C1OC` (stereo not shown) [Compound 139], the “BAW HTS” value is “A (the compound was tested and at least 50 percent mortality was observed)” in experiment [1] (96-well HTS diet assay); “A (the compound was tested and at least 50 percent mortality was observed)” in experiment [1] (setting [3]). The “BAW 50 ug/cm2” value in experiment [2] is “A (the compound was tested and at least 50 percent mortality was observed)”.
